Assays:
[1] = test system: 275-3-2 murine ras-transformed fibroblast cells; test: Oral administration of osteopontin to 129B6F1 tumor-bearing mice; type: in vivo; conditions: for size of the tumor: FIG. 1b
Description: A bovine OPN preparation (Lacprodan®, Arla Foods Ingredients, Viby, Denmark) was dissolved in deionized water, filtered, and administered at final concentrations of 0.03, 0.12, or 0.3 mg/ml to 129B6F1 tumor-bearing mice starting either on the day of tumor cell inoculation (Day 0) or five days later (Day 5). The mice were initially inoculated with 5×10^4 mycoplasma-free 275-3-2 murine ras-transformed fibroblast cells (see Wu 2000). Tumor size was measured with calipers and monitored until the tumors reached 20% of the body weight of the animals, at which time the mice were sacrificed and tissue/plasma samples collected. Statistical significance was calculated using one-way ANOVA with Bonferroni post-test.

[2] = Competition ELISA for bovine OPN in plasma of mice fed with OPN; type: in vivo; conditions: mice fed 50 mg of OPN over 10-30 minutes
Description: In a previous experiment the inventors have detected osteopontin peptides in the plasma of mice fed with OPN using a competition ELISA for bovine OPN: the assay was designed to detect any peptides that can block interaction of intact bovine OPN with the polyclonal antibody used. Plasma from mice fed 50 mg of OPN over 10-30 minutes was analyzed using this ELISA. Peak antibody reactivity was detected at 1-4 hours after feeding, with the highest mean levels being close to 5000 ng/ml.

With “OPN: bovine OPN preparation (Lacprodan®, Arla Foods Ingredients, Viby, Denmark)” the “size of the tumor” value ([1]; oral OPN 0.12 mg/ml started five days after tumor cell injection, at 15 days) was “statistically significant decrease”, the “size of the tumor” value ([1]; oral OPN 0.3 mg/ml started five days after tumor cell injection, at 17 days) was “statistically significant decrease” and the “effect on the size of the tumors” value ([1]; oral OPN in drinking water started at the time of tumor injection (Day 0), up to 17 days, FIG. 1A) was “no significant effect”. The “most effective dose of OPN preparation” value ([1]; oral dosing experiments, 0.03, 0.12, 0.3 mg/ml, highest dose used) was 0.3 mg/mL, the “effect of treatment on mouse weight” value ([1]; oral, about 1.5 mg protein administered) was “nor is there any effect” and the “highest mean plasma levels (immunoreactive OPN peptides)” value [2] was about 5000 ng/mL. The “time of peak antibody reactivity in plasma after feeding” value [2] was 1 to 4 h.
